Data: PubChem BioAssay (NCI)
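Tested at 5 concentrations; 48 h exposure; 96-well plates; endpoints linearly interpolated, else capped at highest concentration. The concentration for full growth arrest is given as TGI.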

Experiments:
Test in all cases: NCI-60 cell line screen, 48 h
HT29 colon = tested on: HT29 colon
MDA-N = tested on: MDA-N
ACHN renal = tested on: ACHN renal
OVCAR-3 ovarian = tested on: OVCAR-3 ovarian
DU-145 prostate = tested on: DU-145 prostate
UACC-62 melanoma = tested on: UACC-62 melanoma
SK-MEL-2 melanoma = tested on: SK-MEL-2 melanoma
M14 melanoma = tested on: M14 melanoma
TK-10 renal = tested on: TK-10 renal
MALME-3M melanoma = tested on: MALME-3M melanoma
SNB-75 CNS = tested on: SNB-75 CNS
786-0 renal = tested on: 786-0 renal
NCI/ADR-RES ovarian = tested on: NCI/ADR-RES ovarian
U251 CNS = tested on: U251 CNS
RPMI-8226 leukemia = tested on: RPMI-8226 leukemia
NCI-H23 lung = tested on: NCI-H23 lung
PC-3 prostate = tested on: PC-3 prostate
BT-549 breast = tested on: BT-549 breast
COLO 205 colon = tested on: COLO 205 colon
A549 NSCLC = tested on: A549 NSCLC
OVCAR-5 ovarian = tested on: OVCAR-5 ovarian
KM12 colon = tested on: KM12 colon
CAKI-1 renal = tested on: CAKI-1 renal
HCT-116 colon = tested on: HCT-116 colon
LOX IMVI melanoma = tested on: LOX IMVI melanoma
MDA-MB-231 breast = tested on: MDA-MB-231 breast
EKVX NSCLC = tested on: EKVX NSCLC
SK-MEL-5 melanoma = tested on: SK-MEL-5 melanoma
MOLT-4 leukemia = tested on: MOLT-4 leukemia
SK-OV-3 ovarian = tested on: SK-OV-3 ovarian
SW-620 colon = tested on: SW-620 colon
NCI-H522 lung = tested on: NCI-H522 lung
SF-268 CNS = tested on: SF-268 CNS
IGROV1 ovarian = tested on: IGROV1 ovarian
HOP-62 NSCLC = tested on: HOP-62 NSCLC
HOP-92 NSCLC = tested on: HOP-92 NSCLC
HCT-15 colon = tested on: HCT-15 colon
CCRF-CEM leukemia = tested on: CCRF-CEM leukemia
SF-295 CNS = tested on: SF-295 CNS
UO-31 renal = tested on: UO-31 renal
SF-539 CNS = tested on: SF-539 CNS
NCI-H226 lung = tested on: NCI-H226 lung
MDA-MB-435 = tested on: MDA-MB-435
SNB-19 CNS = tested on: SNB-19 CNS
UACC-257 melanoma = tested on: UACC-257 melanoma
A498 renal = tested on: A498 renal
SK-MEL-28 melanoma = tested on: SK-MEL-28 melanoma
OVCAR-8 ovarian = tested on: OVCAR-8 ovarian
T-47D breast = tested on: T-47D breast
RXF 393 renal = tested on: RXF 393 renal
MCF7 breast = tested on: MCF7 breast
HCC-2998 colon = tested on: HCC-2998 colon
OVCAR-4 ovarian = tested on: OVCAR-4 ovarian
HS 578T breast = tested on: HS 578T breast
SR leukemia = tested on: SR leukemia
K-562 leukemia = tested on: K-562 leukemia
HL-60(TB) leukemia = tested on: HL-60(TB) leukemia
SN12C renal = tested on: SN12C renal
NCI-H460 lung = tested on: NCI-H460 lung

N#Cc1sc2nc3ccccc3n2c1N
TGI (HT29 colon): > 100000 nM
TGI (MDA-N): > 100000 nM
TGI (ACHN renal): > 100 µM
TGI (OVCAR-3 ovarian): > 100 µM
TGI (DU-145 prostate): > 100 µM
TGI (UACC-62 melanoma): > 100 µM
TGI (SK-MEL-2 melanoma): 81.7 µM
TGI (M14 melanoma): > 100 µM
TGI (TK-10 renal): > 100 µM
TGI (MALME-3M melanoma): > 100 µM
TGI (SNB-75 CNS): > 100 µM
TGI (786-0 renal): > 100000 nM
TGI (NCI/ADR-RES ovarian): > 100000 nM
TGI (U251 CNS): > 100000 nM
TGI (RPMI-8226 leukemia): > 100 µM
TGI (NCI-H23 lung): > 100 µM
TGI (PC-3 prostate): > 100000 nM
TGI (BT-549 breast): > 100 µM
TGI (COLO 205 colon): > 100000 nM
TGI (A549 NSCLC): > 100 µM
TGI (OVCAR-5 ovarian): > 100 µM
TGI (KM12 colon): 23.6 µM
TGI (CAKI-1 renal): > 100 µM
TGI (HCT-116 colon): > 100000 nM
TGI (LOX IMVI melanoma): > 100000 nM
TGI (MDA-MB-231 breast): > 100000 nM
TGI (EKVX NSCLC): > 100 µM
TGI (SK-MEL-5 melanoma): > 100000 nM
TGI (MOLT-4 leukemia): > 100 µM
TGI (SK-OV-3 ovarian): > 100 µM
TGI (SW-620 colon): > 100000 nM
TGI (NCI-H522 lung): > 100000 nM
TGI (SF-268 CNS): > 100 µM
TGI (IGROV1 ovarian): > 100 µM
TGI (HOP-62 NSCLC): > 100 µM
TGI (HOP-92 NSCLC): > 100 µM
TGI (HCT-15 colon): > 100000 nM
TGI (CCRF-CEM leukemia): > 100000 nM
TGI (SF-295 CNS): > 100000 nM
TGI (UO-31 renal): > 100 µM
TGI (SF-539 CNS): > 100000 nM
TGI (NCI-H226 lung): > 100 µM
TGI (MDA-MB-435): > 100 µM
TGI (SNB-19 CNS): > 100000 nM
TGI (UACC-257 melanoma): > 100 µM
TGI (A498 renal): > 100 µM
TGI (SK-MEL-28 melanoma): > 100 µM
TGI (OVCAR-8 ovarian): > 100 µM
TGI (T-47D breast): > 100 µM
TGI (RXF 393 renal): 67.6 µM
TGI (MCF7 breast): > 100000 nM
TGI (HCC-2998 colon): > 100000 nM
TGI (OVCAR-4 ovarian): > 100 µM
TGI (HS 578T breast): > 100 µM

CCN(CC)CCNc1ccc([N+](=O)[O-])c2nc3ccc(OC)cc3c(NCCN(CC)CC)c12
TGI (HT29 colon): 2630 nM
TGI (MDA-N): 2390 nM
TGI (ACHN renal): > 10 µM
TGI (OVCAR-3 ovarian): 4.95 µM
TGI (DU-145 prostate): > 7.37 µM
TGI (SR leukemia): 609 nM
TGI (UACC-62 melanoma): > 10 µM
TGI (SK-MEL-2 melanoma): 4.87 µM
TGI (M14 melanoma): > 5.3 µM
TGI (TK-10 renal): > 8.78 µM
TGI (MALME-3M melanoma): 5.07 µM
TGI (SNB-75 CNS): > 5.11 µM
TGI (786-0 renal): 1560 nM
TGI (NCI/ADR-RES ovarian): 2760 nM
TGI (U251 CNS): 2590 nM
TGI (RPMI-8226 leukemia): > 4.4 µM
TGI (NCI-H23 lung): 4.38 µM
TGI (PC-3 prostate): 2100 nM
TGI (COLO 205 colon): 1590 nM
TGI (A549 NSCLC): 3.4 µM
TGI (OVCAR-5 ovarian): 4.79 µM
TGI (KM12 colon): 3.6 µM
TGI (K-562 leukemia): 1380 nM
TGI (CAKI-1 renal): 8.6 µM
TGI (HCT-116 colon): 2130 nM
TGI (LOX IMVI melanoma): 2430 nM
TGI (MDA-MB-231 breast): 2450 nM
TGI (HL-60(TB) leukemia): 2530 nM
TGI (EKVX NSCLC): 5.02 µM
TGI (SK-MEL-5 melanoma): 2980 nM
TGI (MOLT-4 leukemia): > 3.13 µM
TGI (SN12C renal): 3.69 µM
TGI (SK-OV-3 ovarian): > 10 µM
TGI (SW-620 colon): 2510 nM
TGI (NCI-H522 lung): 2510 nM
TGI (SF-268 CNS): > 10 µM
TGI (IGROV1 ovarian): 7.15 µM
TGI (HOP-62 NSCLC): 3.75 µM
TGI (HOP-92 NSCLC): 5.42 µM
TGI (HCT-15 colon): 2520 nM
TGI (CCRF-CEM leukemia): 1540 nM
TGI (SF-295 CNS): 2600 nM
TGI (UO-31 renal): 3.71 µM
TGI (SF-539 CNS): 2430 nM
TGI (NCI-H226 lung): 3.8 µM
TGI (MDA-MB-435): > 4.78 µM
TGI (SNB-19 CNS): 2780 nM
TGI (UACC-257 melanoma): > 10 µM
TGI (A498 renal): 4.05 µM
TGI (SK-MEL-28 melanoma): > 8.37 µM
TGI (OVCAR-8 ovarian): > 4.16 µM
TGI (T-47D breast): > 10 µM
TGI (NCI-H460 lung): 1410 nM
TGI (RXF 393 renal): 2.59 µM
TGI (MCF7 breast): 2710 nM
TGI (HCC-2998 colon): 2010 nM
TGI (OVCAR-4 ovarian): 3.1 µM
TGI (HS 578T breast): 3.91 µM
